Test results from patent US6355799B1, “Substituted benzene compounds, process for their preparation, and herbicidal and defoliant compositions containing them” (ISK Americas Incorporated, priority 1997, dated 2002).

What was measured:
Assay type in all cases: in vivo
[1] = tested on: redroot pigweed (Amaranthus retroflexus, AMARE); test: Pre-emerge test, greenhouse herbicide activity screening; conditions: rating scale 0-100, 14 days after application
Summary of the method: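 Rating: 0–100 visual injury, 14 DAA. Application: acetone, 187 l/ha, 15–1000 g ai/ha, flat-fan track sprayer with nozzle 40–45 cm above soil or canopy. Post-emerge runs used 0.25% v/v surfactant on 2–3 leaf plants.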

[2] = tested on: barnyardgrass (Echinochloa crus-galli, ECHCG); test: as above; conditions: rating scale 0-100, 14 days after application
Summary of the method: (§1)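 Compounds in acetone were track-sprayed at 187 l/ha, 15–1000 g ai/ha, onto sandy loam pots. Pre-emerge seeds were sown one day before spraying, with surface watering afterwards. Post-emerge plants were at the 2–3 leaf stage and sprayed with 0.25% v/v non-ionic surfactant. Injury was rated 0–100 at 14 days.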

[3] = tested on: green foxtail (Setaria viridis, SETVI); test: as above; conditions: rating scale 0-100, 14 days after application
Summary of the method: as §1

[4] = tested on: ivyleaf morningglory (Ipomoea hederacea, IPOHE); test: as above; conditions: rating scale 0-100, 14 days after application
Summary of the method: as §1

[5] = tested on: johnsongrass (Sorghum halepense, SORHA); test: as above; conditions: rating scale 0-100, 14 days after application
Summary of the method: as §1

[6] = tested on: lambsquarters (Chenopodium album, CHEAL); test: as above; conditions: rating scale 0-100, 14 days after application
Summary of the method: as §1

[7] = tested on: large crabgrass (Digitaria sanguinalis, DIGSA); test: as above; conditions: rating scale 0-100, 14 days after application
Summary of the method: as §1

[8] = tested on: sicklepod (Cassia obtusifolia, CASOB); test: as above; conditions: rating scale 0-100, 14 days after application
Summary of the method: as §1

[9] = tested on: velvetleaf (Abutilon theophrasti, ABUTH); test: as above; conditions: rating scale 0-100, 14 days after application
Summary of the method: as §1

[10] = tested on: field corn (Zea mays L., var. Dekalb 535, CORN); test: Pre-emerge test, crop safety; conditions: rating scale 0-100, 14 days after application
Summary of the method: (§2)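 Herbicidal damage is scored 0 (none) to 100 (complete plant death) two weeks after a simulated field spray. Rates span 15–1000 g ai/ha, delivered in acetone at 187 l/ha. For post-emergence treatments, plants have 2–3 leaves and the spray carries 0.25% v/v non-ionic surfactant.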

[11] = tested on: upland rice (Oryza sp., var. Tebonnet, RICE); test: Pre-emerge test, crop safety; conditions: rating scale 0-100, 14 days after application
Summary of the method: as §2

[12] = tested on: barnyardgrass (Echinochloa crus-galli, ECHCG); test: Post-emerge test, greenhouse herbicide activity screening; conditions: rating scale 0-100 (0 no damage, 100 complete death), 14 days after application
Summary of the method: (§3)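 Sandy loam pots; pre-emerge: sown 1 d pre-spray, surface-watered after, then bottom-watered. Post-emerge: sown 8–21 d before, 2–3 leaf stage, + 0.25% v/v NIS, bottom-watered. Acetone, 187 l/ha track spray, 15–1000 g ai/ha. 0–100 injury score, day 14.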

[13] = tested on: common ragweed (Ambrosia artemisizfolia L., AMBEL); test: as above; conditions: rating scale 0-100 (0 no damage, 100 complete death), 14 days after application
Summary of the method: as §3

[14] = tested on: green foxtail (Setaria viridis, SETVI); test: as above; conditions: rating scale 0-100 (0 no damage, 100 complete death), 14 days after application
Summary of the method: as §3

[15] = tested on: ivyleaf morningglory (Ipomoea hederacea, IPOHE); test: as above; conditions: rating scale 0-100 (0 no damage, 100 complete death), 14 days after application
Summary of the method: as §3

[16] = tested on: johnsongrass (Sorghum halepense, SORHA); test: as above; conditions: rating scale 0-100 (0 no damage, 100 complete death), 14 days after application
Summary of the method: as §3

[17] = tested on: lambsquarters (Chenopodium album, CHEAL); test: as above; conditions: rating scale 0-100 (0 no damage, 100 complete death), 14 days after application
Summary of the method: as §3

[18] = tested on: large crabgrass (Digitaria sanguinalis, DIGSA); test: as above; conditions: rating scale 0-100 (0 no damage, 100 complete death), 14 days after application
Summary of the method: as §3

[19] = tested on: redroot pigweed (Amaranthus retroflexus, AMARE); test: as above; conditions: rating scale 0-100 (0 no damage, 100 complete death), 14 days after application
Summary of the method: as §3

[20] = tested on: sicklepod (Cassia obtusifolia, CASOB); test: as above; conditions: rating scale 0-100 (0 no damage, 100 complete death), 14 days after application
Summary of the method: as §3

[21] = tested on: velvetleaf (Abutilon theophrasti, ABUTH); test: as above; conditions: rating scale 0-100 (0 no damage, 100 complete death), 14 days after application
Summary of the method: as §3

[22] = tested on: field corn (Zea mays L., var. Dekalb 535, CORN); test: Post-emerge test, crop safety; conditions: rating scale 0-100 (0 no damage, 100 complete death), 14 days after application
Summary of the method: as §1

[23] = tested on: upland rice (Oryza sp., var. Tebonnet, RICE); test: Post-emerge test, crop safety; conditions: rating scale 0-100 (0 no damage, 100 complete death), 14 days after application
Summary of the method: as §1

## COCCOC(=O)C(C)(Cl)Cc1c(OC)c(Cl)cc(F)c1-n1c(=O)cc(C(F)(F)F)n(C)c1=O (stereo not shown) [14-47]
[1]; 63 g ai/ha
  Pre-emerge herbicidal activity, phytotoxicity rating AMARE: 100
[1]; 250 g ai/ha
  Pre-emerge herbicidal activity, phytotoxicity rating AMARE: 100
[2]; 63 g ai/ha
  Pre-emerge herbicidal activity, phytotoxicity rating ECHCG: 0
[2]; 250 g ai/ha
  Pre-emerge herbicidal activity, phytotoxicity rating ECHCG: 95
[3]; 63 g ai/ha
  Pre-emerge herbicidal activity, phytotoxicity rating SETVI: 0
[3]; 250 g ai/ha
  Pre-emerge herbicidal activity, phytotoxicity rating SETVI: 99
[4]; 63 g ai/ha
  Pre-emerge herbicidal activity, phytotoxicity rating IPOHE: 0
[4]; 250 g ai/ha
  Pre-emerge herbicidal activity, phytotoxicity rating IPOHE: 0
[5]; 63 g ai/ha
  Pre-emerge herbicidal activity, phytotoxicity rating SORHA: 0
[5]; 250 g ai/ha
  Pre-emerge herbicidal activity, phytotoxicity rating SORHA: 20
[6]; 63 g ai/ha
  Pre-emerge herbicidal activity, phytotoxicity rating CHEAL: 100
[6]; 250 g ai/ha
  Pre-emerge herbicidal activity, phytotoxicity rating CHEAL: 100
[7]; 63 g ai/ha
  Pre-emerge herbicidal activity, phytotoxicity rating DIGSA: 30
[7]; 250 g ai/ha
  Pre-emerge herbicidal activity, phytotoxicity rating DIGSA: 100
[8]; 63 g ai/ha
  Pre-emerge herbicidal activity, phytotoxicity rating CASOB: 0
[8]; 250 g ai/ha
  Pre-emerge herbicidal activity, phytotoxicity rating CASOB: 0
[9]; 63 g ai/ha
  Pre-emerge herbicidal activity, phytotoxicity rating ABUTH: 100
[9]; 250 g ai/ha
  Pre-emerge herbicidal activity, phytotoxicity rating ABUTH: 100
[10]; 63 g ai/ha
  Pre-emerge phytotoxicity rating, crop damage CORN: 0
[10]; 250 g ai/ha
  Pre-emerge phytotoxicity rating, crop damage CORN: 0
[11]; 63 g ai/ha
  Pre-emerge phytotoxicity rating, crop damage RICE: 0
[11]; 250 g ai/ha
  Pre-emerge phytotoxicity rating, crop damage RICE: 70
[12]; Rate 63 g ai/ha
  Post-emerge Herbicidal Activity, phytotoxicity rating ECHCG: 100
[12]; Rate 250 g ai/ha
  Post-emerge Herbicidal Activity, phytotoxicity rating ECHCG: 100
[13]; Rate 63 g ai/ha
  Post-emerge Herbicidal Activity, phytotoxicity rating AMBEL: 100
[13]; Rate 250 g ai/ha
  Post-emerge Herbicidal Activity, phytotoxicity rating AMBEL: 100
[14]; Rate 63 g ai/ha
  Post-emerge Herbicidal Activity, phytotoxicity rating SETVI: 90
[14]; Rate 250 g ai/ha
  Post-emerge Herbicidal Activity, phytotoxicity rating SETVI: 100
[15]; Rate 63 g ai/ha
  Post-emerge Herbicidal Activity, phytotoxicity rating IPOHE: 80
[15]; Rate 250 g ai/ha
  Post-emerge Herbicidal Activity, phytotoxicity rating IPOHE: 100
[16]; Rate 63 g ai/ha
  Post-emerge Herbicidal Activity, phytotoxicity rating SORHA: 70
[16]; Rate 250 g ai/ha
  Post-emerge Herbicidal Activity, phytotoxicity rating SORHA: 80
[17]; Rate 63 g ai/ha
  Post-emerge Herbicidal Activity, phytotoxicity rating CHEAL: 100
[17]; Rate 250 g ai/ha
  Post-emerge Herbicidal Activity, phytotoxicity rating CHEAL: 100
[18]; Rate 63 g ai/ha
  Post-emerge Herbicidal Activity, phytotoxicity rating DIGSA: 95
[18]; Rate 250 g ai/ha
  Post-emerge Herbicidal Activity, phytotoxicity rating DIGSA: 100
[19]; Rate 63 g ai/ha
  Post-emerge Herbicidal Activity, phytotoxicity rating AMARE: 100
[19]; Rate 250 g ai/ha
  Post-emerge Herbicidal Activity, phytotoxicity rating AMARE: 100
[20]; Rate 63 g ai/ha
  Post-emerge Herbicidal Activity, phytotoxicity rating CASOB: 0
[20]; Rate 250 g ai/ha
  Post-emerge Herbicidal Activity, phytotoxicity rating CASOB: 70
[21]; Rate 63 g ai/ha
  Post-emerge Herbicidal Activity, phytotoxicity rating ABUTH: 100
[21]; Rate 250 g ai/ha
  Post-emerge Herbicidal Activity, phytotoxicity rating ABUTH: 100
[22]; Rate 63 g ai/ha
  Post-emerge phytotoxicity rating CORN (crop damage): 40
[22]; Rate 250 g ai/ha
  Post-emerge phytotoxicity rating CORN (crop damage): 100
[23]; Rate 63 g ai/ha
  Post-emerge phytotoxicity rating RICE (crop damage): 100
[23]; Rate 250 g ai/ha
  Post-emerge phytotoxicity rating RICE (crop damage): 100
